Patent US20180258459A1, “NITRATE BIOSENSOR” (priority 2015, published 2018)

System: NarL associated promoter
Assay: transfer of natural NarL with its associated promoter into B. subtilis
Format: cell-based
Conditions: natural NarL protein with its associated promoter, previous attempts

## NarL: response regulator (RR) protein NarL from E. coli (UniProt P0AF28)
  functional transcription in B. subtilis: failed to result in functional transcription
